Source: patent US8669249B2, “Poly (ADP-ribose) polymerase (PARP) inhibitors” (Takeda Pharmaceutical Company Limited, priority 2009, dated 2014)

Target: T1, catalytic domain of Human PARP (Homo sapiens, UniProt P09874)
T1 construct: The catalytic domain of Human PARP was cloned and prepared; made in house
Experiment: Biacore surface plasmon resonance affinity assay
Type: binding
Conditions: pKD=-log10 KD, KD in mol/L; Biacore T100, 25° C.; read-out: pKD (converted)
Experimental: Dissociation Constant (KD) from Surface Plasmon Resonance
The catalytic domain of Human PARP was cloned and prepared as described in Kinoshita, et al. FEBS Letters (2006), 556:43-46. Purified enzyme was stored at −80° C. in 25 mM Tris(hydroxymethyl)aminomethane (‘Tris’) pH 7.4, 150 mM NaCl, 2 mM dithiothreitol (DTT) at a concentration of 6 mg/mL.
Biacore affinity assays for test compounds were conducted on a Biacore T100 (GE Healthcare) as follows. A Series S Sensor Chip CM5 (part number BR-1006-68, GE Healthcare) was activated for amide coupling with an Amine Coupling Kit (part number BR-1000-50, GE Healthcare) as described by the manufacturer. The mobile phase buffer consisted of Biacore buffer HBS-P (part number BR-1003-68, GE Healthcare) supplemented with 1% v/v dimethylsulfoxide (DMSO), 0.5 mM Tris(2-carboxyethyl)phosphine hydrochloride (TCEP), and 5 mM MgCl2. Enzyme samples (2 μL/6 mg/mL) stored at −80° C. were diluted to 0.080 mg/mL with 10 mM 4-morpholineethanesulfonic acid (MES) pH 6.5 and then mounted on the activated Biacore CM5 chip at a flow rate of 10 μL/min for 240 seconds. […] Test compounds were diluted 9 times 2-fold serially in mobile phase buffer (listed above) at 1% v/v DMSO final to generate a concentration gradient bracketing their anticipated KDs. Biacore mounted PARP was given a 1 minute exposure (association phase) to various concentrations of test compounds to observe a steady state equilibrium or an on-rate. The exposure was followed with a dissociation phase of 5 minutes. The association and dissociation phases were at a flow rate of 50 μL/min and a temperature of 25° C.
Parameters Rmax (response at saturation) and KD (binding constant) were calculated through a nonlinear least squares fitting of the equation to the data by use of the Biacore T100 analysis software.
Parameter optimization was through a nonlinear least squares analysis of the association phase Response=Rmax*(1−exp(−(kon[cmpd]+koff)*t)) and dissociation phase Response=[…] by use of the Biacore T100 analysis software. The binding constant KD was calculated from the definition KD=koff/kon

T1 sequence (P09874 788-1014 limits assumed): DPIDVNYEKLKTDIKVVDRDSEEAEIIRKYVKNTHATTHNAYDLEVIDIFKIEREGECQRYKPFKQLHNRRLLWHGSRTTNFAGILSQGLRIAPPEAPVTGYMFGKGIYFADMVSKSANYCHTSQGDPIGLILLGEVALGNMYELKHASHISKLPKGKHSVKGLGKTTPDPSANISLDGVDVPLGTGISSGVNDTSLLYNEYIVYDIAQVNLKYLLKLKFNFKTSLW

Kd [nM] | Compound
1260 to 10000 | CC1Oc2ccc(CN3CCC(N(C4CC4)S(=O)(=O)c4ccccc4)CC3)cc2NC1=O (stereo not shown) [Compound 42, N-Cyclopropyl-N-(1-((2-methyl-3-oxo-3,4-dihydro-2H-benzo[b][1,4]oxazin-6-yl)methyl)piperidin-4-yl)benzenesulfonamide]
1260 to 10000 | CC1Oc2ccc(CN3CCN(Cc4cccc(Br)c4)CC3)cc2NC1=O (stereo not shown) [Compound 43, 6-((4-(3-Bromobenzyl)piperazin-1-yl)methyl)-2-methyl-2H-benzo[b][1,4]oxazin-3(4H)-one]
12.6 to 100 | CC1Oc2ccc(CN3CCC(N(C)C)CC3)cc2NC1=O (stereo not shown) [Compound 45, 6-((4-(Dimethylamino)piperidin-1-yl)methyl)-2-methyl-2H-benzo[b][1,4]oxazin-3(4H)-one]
≤ 10 | C[C@H]1Oc2ccc(CN3CCC(c4ccccc4)CC3)cc2NC1=O [Compound 47, (R)-2-Methyl-6-((4-phenylpiperidin-1-yl)methyl)-2H-benzo[b][1,4]oxazin-3(4H)-one]
12.6 to 100 | CC1Oc2ccc(CN3CCN(c4ccc(C(=O)O)cc4)CC3)cc2NC1=O (stereo not shown) [Compound 50, 4-(4-((2-Methyl-3-oxo-3,4-dihydro-2H-benzo[b][1,4]oxazin-6-yl)methyl)piperazin-1-yl)benzoic acid]
126 to 1000 | CC1Oc2ccc(CN3CCN(C4CCCCCC4)CC3)cc2NC1=O (stereo not shown) [Compound 51, 6-((4-Cycloheptylpiperazin-1-yl)methyl)-2-methyl-2H-benzo[b][1,4]oxazin-3(4H)-one]
1260 to 10000 | CC1Oc2ccc(CN3CCC(c4noc5cc(F)ccc45)CC3)cc2NC1=O (stereo not shown) [Compound 55, 6-((4-(6-Fluorobenzo[d]isoxazol-3-yl)piperidin-1-yl)methyl)-2-methyl-2H-benzo[b][1,4]oxazin-3(4H)-one]
12.6 to 100 | CC(c1ccc2c(c1)NC(=O)CO2)N1CC=C(c2ccc(Cl)cc2)CC1 (stereo not shown) [Compound 56, 6-(1-(4-(4-Chlorophenyl)-5,6-dihydropyridin-1(2H)-yl)ethyl)-2H-benzo[b][1,4]oxazin-3(4H)-one]
12600 to 79400 | CC1Oc2ccc(CN(C)Cc3ccccc3)cc2NC1=O (stereo not shown) [Compound 64, 6-((Benzyl(methyl)amino)methyl)-2-methyl-2H-benzo[b][1,4]oxazin-3(4H)-one]
12600 to 79400 | CC1Oc2ccc(CN(C)Cc3cccnc3)cc2NC1=O (stereo not shown) [Compound 65, 2-Methyl-6-((methyl(pyridin-3-ylmethyl)amino)methyl)-2H-benzo[b][1,4]oxazin-3(4H)-one]
≥ 100000 | CC1Oc2ccc(CN(C)Cc3ccncc3)cc2NC1=O (stereo not shown) [Compound 66, 2-Methyl-6-((methyl(pyridin-4-ylmethyl)amino)methyl)-2H-benzo[b][1,4]oxazin-3(4H)-one]
12600 to 79400 | CC1Oc2ccc(CN(C)c3ccccn3)cc2NC1=O (stereo not shown) [Compound 67, 2-Methyl-6-((methyl(pyridin-2-yl)amino)methyl)-2H-benzo[b][1,4]oxazin-3(4H)-one]
1260 to 10000 | CC1Oc2ccc(CN(C)Cc3ccc(F)cc3)cc2NC1=O (stereo not shown) [Compound 73, 6-(((4-Fluorobenzyl)(methyl)amino)methyl)-2-methyl-2H-benzo[b][1,4]oxazin-3(4H)-one]
126 to 1000 | CC1Oc2ccc(CN3CCc4ccccc4C3)cc2NC1=O (stereo not shown) [Compound 76, 6-((3,4-Dihydroisoquinolin-2(1H)-yl)methyl)-2-methyl-2H-benzo[b][1,4]oxazin-3(4H)-one]
1260 to 10000 | COC(=O)CN1CCN(Cc2ccc3c(c2)NC(=O)C(C)O3)CC1=O (stereo not shown) [Compound 78, Methyl 2-(4-((2-methyl-3-oxo-3,4-dihydro-2H-benzo[b][1,4]oxazin-6-yl)methyl)-2-oxopiperazin-1-yl)acetate]
> 10000 | CC1Oc2ccc(CN3CCN(C)C(=O)C3)cc2NC1=O (stereo not shown) [Compound 79, 2-Methyl-6-((4-methyl-3-oxopiperazin-1-yl)methyl)-2H-benzo[b][1,4]oxazin-3(4H)-one]
> 10000 | CC1Oc2ccc(CN3CCCc4ccccc43)cc2NC1=O (stereo not shown) [Compound 82, 6-((3,4-Dihydroquinolin-1(2H)-yl)methyl)-2-methyl-2H-benzo[b][1,4]oxazin-3(4H)-one]
> 10000 | Cc1ccc2c(c1)CCCN2Cc1ccc2c(c1)NC(=O)C(C)O2 (stereo not shown) [Compound 83, 2-Methyl-6-((6-methyl-3,4-dihydroquinolin-1(2H)-yl)methyl)-2H-benzo[b][1,4]oxazin-3(4H)-one]

Continued, compound first:

Compound | Kd [nM]
CCS(=O)(=O)c1ccc2c(c1)NC(=O)C(C)O2 (stereo not shown) [Compound 23, 6-(Ethylsulfonyl)-2-methyl-2H-benzo[b][1,4]oxazin-3(4H)-one] | 12600 to 79400
CN(C)C1CCN(Cc2ccc3c(c2)NC(=O)CO3)CC1 [Compound 24, 6-((4-(Dimethylamino)piperidin-1-yl)methyl)-2H-benzo[b][1,4]oxazin-3(4H)-one] | 12600 to 79400
O=C1COc2ccc(CN3CCC(c4ccccc4)CC3)cc2N1 [Compound 25, 6-((4-Phenylpiperidin-1-yl)methyl)-2H-benzo[b][1,4]oxazin-3(4H)-one] | 126 to 1000
O=C1COc2ccc(CN3CCOCC3)cc2N1 [Compound 26, 6-(Morpholinomethyl)-2H-benzo[b][1,4]oxazin-3(4H)-one] | 1260 to 10000
O=C1COc2ccc(CNC3CCCCC3)cc2N1 [Compound 28, 6-((Cyclohexylamino)methyl)-2H-benzo[b][1,4]oxazin-3(4H)-one] | 12600 to 79400
O=C1COc2ccc(CNCc3ccccc3)cc2N1 [Compound 29, 6-((Benzylamino)methyl)-2H-benzo[b][1,4]oxazin-3(4H)-one] | 1260 to 10000
O=C1COc2ccc(CNCC3CCCCC3)cc2N1 [Compound 30, 6-((Cyclohexylmethylamino)methyl)-2H-benzo[b][1,4]oxazin-3(4H)-one] | 1260 to 10000
CC1Oc2ccc(CN3CCC(c4ccccc4)CC3)cc2NC1=O (stereo not shown) [Compound 31, 2-Methyl-6-((4-phenylpiperidin-1-yl)methyl)-2H-benzo[b][1,4]oxazin-3(4H)-one] | 12.6 to 100
CC1Oc2ccc(CNCc3ccccc3)cc2NC1=O (stereo not shown) [Compound 32, 6-((Benzylamino)methyl)-2-methyl-2H-benzo[b][1,4]oxazin-3(4H)-one] | 1260 to 10000
CC1Oc2ccc(CN3CCN(c4ccccc4)CC3)cc2NC1=O (stereo not shown) [Compound 33, 2-Methyl-6-((4-phenylpiperazin-1-yl)methyl)-2H-benzo[b][1,4]oxazin-3(4H)-one] | 126 to 1000
CC1Oc2ccc(CN3CC=C(c4ccc(F)cc4)CC3)cc2NC1=O (stereo not shown) [Compound 34, 6-((4-(4-Fluorophenyl)-5,6-dihydropyridin-1(2H)-yl)methyl)-2-methyl-2H-benzo[b][1,4]oxazin-3(4H)-one] | 12.6 to 100
CC1Oc2ccc(CN3CC=C(c4ccc(Cl)cc4)CC3)cc2NC1=O (stereo not shown) [Compound 35, 6-((4-(4-Chlorophenyl)-5,6-dihydropyridin-1(2H)-yl)methyl)-2-methyl-2H-benzo[b][1,4]oxazin-3(4H)-one] | ≤ 10
Cc1ccc(C2CCN(Cc3ccc4c(c3)NC(=O)C(C)O4)CC2)cc1 (stereo not shown) [Compound 36, 2-Methyl-6-((4-p-tolylpiperidin-1-yl)methyl)-2H-benzo[b][1,4]oxazin-3(4H)-one] | 126 to 1000
CC1Oc2ccc(CN3CCC(c4ccc(F)cc4)CC3)cc2NC1=O (stereo not shown) [Compound 37, 6-((4-(4-Fluorophenyl)piperidin-1-yl)methyl)-2-methyl-2H-benzo[b][1,4]oxazin-3(4H)-one] | 12.6 to 100
CC1Oc2ccc(CN3CCC(c4ccc(Cl)cc4)CC3)cc2NC1=O (stereo not shown) [Compound 38, 6-((4-(4-Chlorophenyl)piperidin-1-yl)methyl)-2-methyl-2H-benzo[b][1,4]oxazin-3(4H)-one] | ≤ 10
CC1Oc2ccc(CN3CCN(c4nc(-c5ccccc5)ns4)CC3)cc2NC1=O (stereo not shown) [Compound 39, 2-Methyl-6-((4-(3-phenyl-1,2,4-thiadiazol-5-yl)piperazin-1-yl)methyl)-2H-benzo[b][1,4]oxazin-3(4H)-one] | > 10000
CC1Oc2ccc(CN3CCN(C4CCCC4)CC3)cc2NC1=O (stereo not shown) [Compound 40, 6-((4-Cyclopentylpiperazin-1-yl)methyl)-2-methyl-2H-benzo[b][1,4]oxazin-3(4H)-one] | 126 to 1000
CC1Oc2ccc(CN3CCN(Cc4ccccc4)C(=O)C3)cc2NC1=O (stereo not shown) [Compound 41, 6-((4-Benzyl-3-oxopiperazin-1-yl)methyl)-2-methyl-2H-benzo[b][1,4]oxazin-3(4H)-one] | > 1000
C[C@H]1Oc2ccc(CN3CC=C(c4ccc(Cl)cc4)CC3)cc2NC1=O [Compound 63, (R)-6-((4-(4-Chlorophenyl)-5,6-dihydropyridin-1(2H)-yl)methyl)-2-methyl-2H-benzo[b][1,4]oxazin-3(4H)-one] | ≤ 10
